The numbers were not newly measured in US10934504B2, “Laundry treatment compositions comprising perfume and silica microparticles” (Conopco, Inc., priority 2016, dated 2021), which cites them from elsewhere.

The conditions of this data set: values taken from the Good Scents website.
With `CC(=O)OCc1ccccc1` [Benzyl acetate], the logKow is 2.0.
`CCCCCCCCCC(C)C=O` (stereo not drawn) [C12 Aldehyde MNA]: the logKow is reported as 4.9.
On to `C=CC(C)CCCC(C)(C)O` (stereo not drawn) [Dihydromyrcenol], for which the logKow was 2.9.
Regarding `CC(=O)OC(C)(C)Cc1ccccc1` [Dimethyl benzyl carbinyl acetate], the logKow was 2.7.
With `CC(C=O)Cc1ccc(C(C)(C)C)cc1` (stereo not drawn) [Lilial], the logKow is 3.6.
Turning to `C=C(C)[C@H]1CC=C(C)CC1` [Limonene], the logKow was 3.4.
As for `CCCC(C)C(=O)OCC` (stereo not drawn) [Manzanate], the logKow is given as 2.4.
`c1ccc(CCOC2CCCCC2)cc1` [Phenafleur]: the logKow is reported as 3.8.
For `CC(=O)c1cc2c(cc1C)C(C)(C)C(C)CC2(C)C` (stereo not drawn) [Tonalid], the logKow is reported as 4.8.
For the molecule `CC(=O)OC1CC2CC1C1CC=CC21` (stereo not drawn) [Verdyl acetate], the logKow is 2.2.
For `CCCCCCOC(=O)c1ccccc1O` [n-Hexyl salicylate], the logKow is listed as 5.7.
With `CC(=O)/C=C/C1=C(C)CCCC1(C)C` [β-Ionone], the logKow is recorded as 2.9.
